In ChEMBL document CHEMBL1201861, “Genomics of Drug Sensitity in Cancer screening data, Wellcome Trust Sanger Institute”:
pIC50: −log10 of the molar value.

Columns and labels:
Test in all cases: cells
NCI-H720 = type: functional, cell-based, Homo sapiens; details: Homo sapiens, NCI-H720;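 note: growth inhibition of human NCI-H720 cells determined by a cell viability assay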
Description: SANGER: Inhibition of human NCI-H720 cell growth in a cell viability assay.

HAL-01 = type: functional, cell-based, Homo sapiens; details: Homo sapiens, HAL-01;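 note: growth inhibition of human HAL-01 cells, read out with a cell viability assay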
Description: SANGER: Inhibition of human HAL-01 cell growth in a cell viability assay.

KY821 = type: functional, cell-based, Homo sapiens; details: Homo sapiens, KY821;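 note: growth inhibition of human KY821 cells, read out by a cell viability assay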
Description: SANGER: Inhibition of human KY821 cell growth in a cell viability assay.

ES6 = type: functional, cell-based, Homo sapiens; details: Homo sapiens, ES6;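 note: growth inhibition of human ES6 cells, read out with a cell viability assay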
Description: SANGER: Inhibition of human ES6 cell growth in a cell viability assay.

EKVX = type: functional, cell-based, Homo sapiens; details: Homo sapiens, EKVX;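 note: growth inhibition of human EKVX cells, read out with a cell viability assay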
Description: SANGER: Inhibition of human EKVX cell growth in a cell viability assay.

SK-NEP-1 = type: functional, cell-based, Homo sapiens; details: Homo sapiens, SK-NEP-1;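 note: growth inhibition of human SK-NEP-1 cells, read out by a cell viability assay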
Description: SANGER: Inhibition of human SK-NEP-1 cell growth in a cell viability assay.

ATN-1 = type: functional, cell-based, Homo sapiens; details: Homo sapiens, ATN-1;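 note: growth inhibition of human ATN-1 cells, read out with a cell viability assay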
Description: SANGER: Inhibition of human ATN-1 cell growth in a cell viability assay.

LS-1034 = type: functional, cell-based, Homo sapiens; details: Homo sapiens, LS-1034
Description: SANGER: Inhibition of human LS-1034 cell growth in a cell viability assay.

MV4-11 = type: functional, cell-based, Homo sapiens, MV-4-11; details: Homo sapiens, MV4-11;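 note: cell viability readout measuring growth inhibition of human MV-4-11 cells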
Description: SANGER: Inhibition of human MV-4-11 cell growth in a cell viability assay.

NOS-1 = type: functional, cell-based, Homo sapiens; details: Homo sapiens, NOS-1;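 note: growth inhibition of the human NOS-1 cell line, read out with a cell viability assay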
Description: SANGER: Inhibition of human NOS-1 cell growth in a cell viability assay.

LS-411N = type: functional, cell-based, Homo sapiens; details: Homo sapiens, LS-411N
COLO-800 = type: functional, cell-based, Homo sapiens; details: Homo sapiens, COLO-800;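 note: growth inhibition of COLO-800 cells, read out with a cell viability assay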
Description: SANGER: Inhibition of human COLO-800 cell growth in a cell viability assay.

HEL = type: functional, cell-based, Homo sapiens; details: Homo sapiens, HEL;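 note: growth inhibition of HEL cells, read out with a cell viability assay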
Description: SANGER: Inhibition of human HEL cell growth in a cell viability assay.

NCI-H69 = type: functional, cell-based, Homo sapiens; details: Homo sapiens, NCI-H69;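 note: growth inhibition of the cell line, read out with a cell viability assay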
Description: SANGER: Inhibition of human NCI-H69 cell growth in a cell viability assay.

TK-10 = type: functional, cell-based, Homo sapiens; details: Homo sapiens, TK-10;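 note: growth inhibition of TK-10 cells, read out in a cell viability assay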
Description: SANGER: Inhibition of human TK10 cell growth in a cell viability assay.

EC-GI-10 = type: functional, cell-based, Homo sapiens; details: Homo sapiens, EC-GI-10
Description: SANGER: Inhibition of human EC-GI-10 cell growth in a cell viability assay.

ES3 = type: functional, cell-based, Homo sapiens; details: Homo sapiens, ES3;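 note: growth inhibition of ES3 cells, read out with a cell viability assay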
Description: SANGER: Inhibition of human ES3 cell growth in a cell viability assay.

CAS-1 = type: functional, cell-based, Homo sapiens; details: Homo sapiens, CAS-1;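 note: growth inhibition of CAS-1 cells, measured with a cell viability assay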
Description: SANGER: Inhibition of human CAS-1 cell growth in a cell viability assay.

SJSA-1 = type: functional, cell-based, Homo sapiens; details: Homo sapiens, SJSA-1;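 note: growth inhibition of human SJSA-1 cells, read out through a cell viability measurement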
Description: SANGER: Inhibition of human SJSA-1 cell growth in a cell viability assay.

MOLT-16 = type: functional, cell-based, Homo sapiens; details: Homo sapiens, MOLT-16;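 note: growth inhibition of human MOLT-16 cells, read out with a cell viability assay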
Description: SANGER: Inhibition of human MOLT-16 cell growth in a cell viability assay.

SNU1 = type: functional, cell-based, Homo sapiens; details: Homo sapiens, SNU1;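 note: growth inhibition of human NCI-SNU-1 cells, measured with a cell viability assay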
Description: SANGER: Inhibition of human NCI-SNU-1 cell growth in a cell viability assay.

TE-10 = type: functional, cell-based, Homo sapiens; details: Homo sapiens, TE-10;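 note: growth inhibition of TE-10 cells, measured by a cell viability assay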
Description: SANGER: Inhibition of human TE-10 cell growth in a cell viability assay.

SK-LMS-1 = type: functional, cell-based, Homo sapiens; details: Homo sapiens, SK-LMS-1;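 note: growth inhibition of human SK-LMS-1 cells, read out with a cell viability assay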
Description: SANGER: Inhibition of human SK-LMS-1 cell growth in a cell viability assay.

A3-KAW = type: functional, cell-based, Homo sapiens; details: Homo sapiens, A3-KAW;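 note: growth inhibition of human A3-KAW cells, read out with a cell viability assay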
Description: SANGER: Inhibition of human A3-KAW cell growth in a cell viability assay.

EOL1 = type: functional, cell-based, Homo sapiens; details: Homo sapiens, EOL1;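 note: growth inhibition of EoL-1 cells, read out by a cell viability assay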
Description: SANGER: Inhibition of human EoL-1-cell cell growth in a cell viability assay.

ES5 = type: functional, cell-based, Homo sapiens; details: Homo sapiens, ES5;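 note: growth inhibition of human ES5 cells, read out by a cell viability assay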
Description: SANGER: Inhibition of human ES5 cell growth in a cell viability assay.

NTERA-2-cl-D1 = type: functional, cell-based, Homo sapiens; details: Homo sapiens, NTERA-2-cl-D1;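 note: inhibition of cell growth, measured with a cell viability assay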
Description: SANGER: Inhibition of human NTERA-S-cl-D1 cell growth in a cell viability assay.

D283 Med = type: functional, cell-based, Homo sapiens; details: Homo sapiens, D283 Med
Description: SANGER: Inhibition of human D-283MED cell growth in a cell viability assay.

KNS-81-FD = type: functional, cell-based, Homo sapiens; details: Homo sapiens, KNS-81-FD;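 note: growth inhibition of KNS-81-FD cells, read out with a cell viability assay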
Description: SANGER: Inhibition of human KNS-81-FD cell growth in a cell viability assay.

NCI-H226 = type: functional, cell-based, Homo sapiens; details: Homo sapiens, NCI-H226;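 note: cell viability read-out used to gauge growth inhibition of the cells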
Description: SANGER: Inhibition of human NCI-H226 cell growth in a cell viability assay.

LB373-MEL-D = type: functional, cell-based, Homo sapiens; details: Homo sapiens, LB373-MEL-D;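 note: growth inhibition of the cell line, read out in a cell viability assay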
Description: SANGER: Inhibition of human LB373-MEL-D cell growth in a cell viability assay.

LB771-HNC = type: functional, cell-based, Homo sapiens; details: Homo sapiens, LB771-HNC;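 note: growth inhibition of LB771-HNC human cells, read out with a cell viability assay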
Description: SANGER: Inhibition of human LB771-HNC cell growth in a cell viability assay.

LU-139 = type: functional, cell-based, Homo sapiens; details: Homo sapiens, LU-139
Description: SANGER: Inhibition of human LU-139 cell growth in a cell viability assay.

CTV-1 = type: functional, cell-based, Homo sapiens; details: Homo sapiens, CTV-1;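 note: growth inhibition of the cell line, read out with a cell viability assay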
Description: SANGER: Inhibition of human CTV-1 cell growth in a cell viability assay.

KNS-42 = type: functional, cell-based, Homo sapiens; details: Homo sapiens, KNS-42;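 note: growth inhibition of KNS-42 cells, read out with a cell viability assay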
Description: SANGER: Inhibition of human KNS-42 cell growth in a cell viability assay.

KM12 = type: functional, cell-based, Homo sapiens; details: Homo sapiens, KM12;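 note: KM12 cell growth inhibition, read out with a cell viability assay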
Description: SANGER: Inhibition of human KM12 cell growth in a cell viability assay.

COLO-684 = type: functional, cell-based, Homo sapiens; details: Homo sapiens, COLO-684
Description: SANGER: Inhibition of human COLO-684 cell growth in a cell viability assay.

ES4 = type: functional, cell-based, Homo sapiens; details: Homo sapiens, ES4;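 note: growth inhibition of human ES4 cells, read out by a cell viability assay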
Description: SANGER: Inhibition of human ES4 cell growth in a cell viability assay.

HC-1 = type: functional, cell-based, Homo sapiens; details: Homo sapiens, HC-1;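 note: growth inhibition of HC-1 cells measured by a cell viability assay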
Description: SANGER: Inhibition of human HC-1 cell growth in a cell viability assay.

MFM-223 = type: functional, cell-based, Homo sapiens; details: Homo sapiens, MFM-223
Description: SANGER: Inhibition of human MFM-223 cell growth in a cell viability assay.

NCI-H1838 = type: functional, cell-based, Homo sapiens; details: Homo sapiens, NCI-H1838;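 note: growth inhibition of NCI-H1838 cells, determined with a cell viability readout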
Description: SANGER: Inhibition of human NCI-H1838 cell growth in a cell viability assay.

DSH1 = type: functional, cell-based, Homo sapiens; details: Homo sapiens, DSH1;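 note: growth inhibition of human DSH1 cells, measured with a cell viability readout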
Description: SANGER: Inhibition of human DSH1 cell growth in a cell viability assay.

HD-MY-Z = type: functional, cell-based, Homo sapiens; details: Homo sapiens, HD-MY-Z;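 note: growth inhibition of HD-MY-Z cells, read out with a cell viability assay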
Description: SANGER: Inhibition of human HD-MY-Z cell growth in a cell viability assay.

J-RT3-T3-5 = type: functional, cell-based, Homo sapiens; details: Homo sapiens, J-RT3-T3-5;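 note: cell viability assay measuring growth inhibition of human J-RT3-T3-5 cells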
Description: SANGER: Inhibition of human J-RT3-T3-5 cell growth in a cell viability assay.

HCC2218 = type: functional, cell-based, Homo sapiens; details: Homo sapiens, HCC2218;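 note: cell viability assay read-out, with IC50 given as the concentration that inhibits growth of the cell line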
Description: SANGER: Inhibition of human HCC2218 cell growth in a cell viability assay.

KS-1 = type: functional, cell-based, Homo sapiens; details: Homo sapiens, KS-1;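 note: growth inhibition of KS-1 cells, read out with a cell viability assay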
Description: SANGER: Inhibition of human KS-1 cell growth in a cell viability assay.

SW684 = type: functional, cell-based, Homo sapiens; details: Homo sapiens, SW684;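 note: growth inhibition of human SW684 cells, measured by a cell viability assay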
Description: SANGER: Inhibition of human SW684 cell growth in a cell viability assay.

Structure (SMILES): COc1cc(N2CCN(C)CC2)ccc1Nc1ncc2c(n1)N(C)c1ccccc1C(=O)N2C
- pIC50 (NCI-H720): < 5.10
- pIC50 (HAL-01): 5.67
- pIC50 (KY821): < 5.10
- pIC50 (ES6): < 5.10
- pIC50 (EKVX): < 5.10
- pIC50 (SK-NEP-1): < 5.10
- pIC50 (ATN-1): < 5.10
- pIC50 (LS-1034): < 5.10
- pIC50 (MV4-11): 5.79
- pIC50 (NOS-1): 5.45
- pIC50 (LS-411N): 5.15
- pIC50 (COLO-800): < 5.10
- pIC50 (HEL): 5.23
- pIC50 (NCI-H69): < 5.10
- pIC50 (TK-10): < 5.10
- pIC50 (EC-GI-10): < 5.10
- pIC50 (ES3): < 5.10
- pIC50 (CAS-1): < 5.10
- pIC50 (SJSA-1): < 5.10
- pIC50 (MOLT-16): 5.57
- pIC50 (SNU1): < 5.10
- pIC50 (TE-10): 5.16
- pIC50 (SK-LMS-1): < 5.10
- pIC50 (A3-KAW): 5.37
- pIC50 (EOL1): < 5.10
- pIC50 (ES5): < 5.10
- pIC50 (NTERA-2-cl-D1): 5.34
- pIC50 (D283 Med): < 5.10
- pIC50 (KNS-81-FD): < 5.10
- pIC50 (NCI-H226): < 5.10
- pIC50 (LB373-MEL-D): < 5.10
- pIC50 (LB771-HNC): < 5.10
- pIC50 (LU-139): 5.16
- pIC50 (CTV-1): < 5.10
- pIC50 (KNS-42): < 5.10
- pIC50 (KM12): < 5.10
- pIC50 (COLO-684): < 5.10
- pIC50 (ES4): < 5.10
- pIC50 (HC-1): < 5.10
- pIC50 (MFM-223): < 5.10
- pIC50 (NCI-H1838): < 5.10
- pIC50 (DSH1): < 5.10
- pIC50 (HD-MY-Z): < 5.10
- pIC50 (J-RT3-T3-5): < 5.10
- pIC50 (HCC2218): < 5.10
- pIC50 (KS-1): 5.27
- pIC50 (SW684): < 5.10

Structure (SMILES): C#Cc1cccc(Nc2ncnc3cc(OCCOC)c(OCCOC)cc23)c1 [ERLOTINIB]
- pIC50 (NCI-H720): < 5.70
- pIC50 (HAL-01): < 5.70
- pIC50 (ES6): < 5.70
- pIC50 (EKVX): 5.95
- pIC50 (SK-NEP-1): < 5.70
- pIC50 (ATN-1): < 5.70
- pIC50 (LS-1034): < 5.70
- pIC50 (NOS-1): < 5.70
- pIC50 (LS-411N): < 5.70
- pIC50 (COLO-800): < 5.70
- pIC50 (HEL): < 5.70
- pIC50 (NCI-H69): < 5.70
- pIC50 (TK-10): 6.07
- pIC50 (EC-GI-10): < 5.70
- pIC50 (ES3): < 5.70
- pIC50 (CAS-1): < 5.70
- pIC50 (SJSA-1): < 5.70
- pIC50 (MOLT-16): 5.71
- pIC50 (SNU1): < 5.70
- pIC50 (TE-10): < 5.70
- pIC50 (SK-LMS-1): < 5.70
- pIC50 (A3-KAW): < 5.70
- pIC50 (EOL1): < 5.70
- pIC50 (ES5): < 5.70
- pIC50 (NTERA-2-cl-D1): < 5.70
- pIC50 (D283 Med): < 5.70
- pIC50 (KNS-81-FD): < 5.70
- pIC50 (NCI-H226): < 5.70
- pIC50 (LB373-MEL-D): < 5.70
- pIC50 (LB771-HNC): < 5.70
- pIC50 (LU-139): < 5.70
- pIC50 (CTV-1): < 5.70
- pIC50 (KNS-42): < 5.70
- pIC50 (KM12): < 5.70
- pIC50 (COLO-684): < 5.70
- pIC50 (ES4): < 5.70
- pIC50 (HC-1): < 5.70
- pIC50 (MFM-223): < 5.70
- pIC50 (NCI-H1838): < 5.70
- pIC50 (DSH1): < 5.70
- pIC50 (HD-MY-Z): < 5.70
- pIC50 (J-RT3-T3-5): < 5.70
- pIC50 (HCC2218): < 5.70
- pIC50 (KS-1): < 5.70
- pIC50 (SW684): < 5.70

Structure (SMILES): COc1cc2ncn(-c3cc(OCc4ccccc4S(C)(=O)=O)c(C#N)s3)c2cc1OC [GSK-319347A]
- pIC50 (NCI-H720): < 5.30
- pIC50 (HAL-01): < 5.30
- pIC50 (KY821): < 5.30
- pIC50 (ES6): < 5.30
- pIC50 (EKVX): < 5.30
- pIC50 (SK-NEP-1): < 5.30
- pIC50 (ATN-1): < 5.30
- pIC50 (LS-1034): < 5.30
- pIC50 (MV4-11): < 5.30
- pIC50 (NOS-1): < 5.30
- pIC50 (LS-411N): < 5.30
- pIC50 (COLO-800): < 5.30
- pIC50 (HEL): < 5.30
- pIC50 (NCI-H69): < 5.30
- pIC50 (TK-10): < 5.30
- pIC50 (EC-GI-10): < 5.30
- pIC50 (ES3): < 5.30
- pIC50 (CAS-1): < 5.30
- pIC50 (SJSA-1): < 5.30
- pIC50 (MOLT-16): < 5.30
- pIC50 (SNU1): < 5.30
- pIC50 (TE-10): < 5.30
- pIC50 (SK-LMS-1): < 5.30
- pIC50 (A3-KAW): < 5.30
- pIC50 (EOL1): < 5.30
- pIC50 (ES5): < 5.30
- pIC50 (NTERA-2-cl-D1): < 5.30
- pIC50 (D283 Med): < 5.30
- pIC50 (KNS-81-FD): < 5.30
- pIC50 (NCI-H226): < 5.30
- pIC50 (LB373-MEL-D): < 5.30
- pIC50 (LB771-HNC): < 5.30
- pIC50 (LU-139): < 5.30
- pIC50 (CTV-1): < 5.30
- pIC50 (KNS-42): < 5.30
- pIC50 (KM12): < 5.30
- pIC50 (COLO-684): < 5.30
- pIC50 (ES4): < 5.30
- pIC50 (HC-1): < 5.30
- pIC50 (MFM-223): < 5.30
- pIC50 (NCI-H1838): < 5.30
- pIC50 (DSH1): < 5.30
- pIC50 (HD-MY-Z): < 5.30
- pIC50 (J-RT3-T3-5): < 5.30
- pIC50 (HCC2218): < 5.30
- pIC50 (KS-1): < 5.30
- pIC50 (SW684): < 5.30
